Measurements taken from US12116343B2, “Inhibitors of APOL1 and methods of using same” (Vertex Pharmaceuticals Incorporated, priority 2020, dated 2024).

Target: T1, G1 APOL1 (Homo sapiens, UniProt O14791, I384M/S342G)
T1 construct: expressed in transfected cells
T1 sequence (O14791 28-398 S342G/I384M): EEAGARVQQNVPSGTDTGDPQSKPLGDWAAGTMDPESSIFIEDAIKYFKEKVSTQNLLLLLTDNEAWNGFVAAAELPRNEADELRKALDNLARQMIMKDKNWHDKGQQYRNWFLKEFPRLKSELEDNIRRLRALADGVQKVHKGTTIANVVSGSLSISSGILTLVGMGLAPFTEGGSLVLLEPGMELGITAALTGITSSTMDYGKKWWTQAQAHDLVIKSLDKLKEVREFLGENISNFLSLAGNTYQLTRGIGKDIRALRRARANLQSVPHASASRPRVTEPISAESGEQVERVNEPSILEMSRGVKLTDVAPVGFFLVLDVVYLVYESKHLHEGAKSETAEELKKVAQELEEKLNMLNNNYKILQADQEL
Experiment: Acute APOL1 Thallium Assay with inducible stable clones of HEK 293 cells
Type: cell-based
Details: HEK 293 T-Rex cells expressing G1 APOL1; read-out: Thallium Assay (IC50)
Outline: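 Tetracycline-inducible HEK293 T-Rex clone G1 DC3.25 expressing G1 APOL1, plated at 26000 cells/well in Opti-MEM with tetracycline induction. APOL1 pore activity read on FLIPR as fluorescence increase from Tl+ influx into cells loaded with a Tl+-sensitive AM-ester dye.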

- IC50: > 1000 nM
SMILES: CN1CCN(C(=O)CNC(=O)[C@H]2C[C@H](c3c(-c4ccc(F)cc4)[nH]c4c(F)cc(F)cc43)C2)CC1 [Compound 67]
